Entries after “also recorded” stand apart in the source; their conditions may differ. Counter-ions that a name gives are not always drawn.
Tests used:
Type in all cases: cell-based
platelets [1] = experiment: Wet mount phase-contrast images of fixed blood samples, platelet aggregation; settings: fixed venous blood, 40x phase-contrast; eptifibatide 20 μM added to heparin
Source text: Venous blood samples drawn, mixed and fixed with 10% formalin solution, as described before in Example 1 were used to prepare wet mounts on a glass slide and covered with a glass coverslip. Wet mount samples of fixed blood cells were then imaged with a Leica 750 microscope using a 40× phase-contrast air objective.

platelets [2] = experiment: Manual platelet count (single platelets, platelet aggregates) in heparinized blood with anti-platelet agents, hemocytometer; settings: two concentration levels of drug, mixed 15 minutes; for Formation of platelet aggregates compared to LiHep and PicoSAM references / Single platelet count compared to LiHep and PicoSAM controls / Number of platelet aggregates compared to EDTA: venous whole blood in PICO70 samplers with heparin; for Single platelet count compared to EDTA reference: venous whole blood in PICO70 samplers with heparin 60 IU/mL (LiHep or PicoSAM)
Experimental: Each experiment was conducted on a separate day with blood from one voluntary donor testing one anti-platelet drug candidate. For each experiment PICO70 syringe samplers (Radiometer Medical ApS) were prepared just before sample drawing. For “LiHep” (Liquid Heparin) conditions, PICO70 samplers were emptied of the gold ball and heparin brick and 15 μl of aqueous liquid balanced heparin comprising heparin lithium (Celsus Laboratories) and heparin sodium (Celsus Laboratories) (final heparin conc. 60 IU/mL blood) and 15 μl of the solvent of the tested drug were added. For “PicoSAM” conditions, unmodified PICO70 samplers (with gold ball and heparin brick) were used and 15 μl of the solvent of the respective tested drug was added. For “LiHep xxx drug” conditions, PICO70 samplers were emptied as described for LiHep and 15 μl of liquid balanced heparin (final heparin conc. 60 IU/mL blood) and 15 μl of the dissolved tested drug were added. For “PicoSAM xxx drug” conditions, unmodified PICO70 samplers (with gold ball and heparin brick) were used and 15 μl of the dissolved tested drug was added. […] 600 μM and 6 mM) and dipyridamole (Sigma, D9766; dissolved in 1:10 or 1:100 DMSO in saline, final conc. 10 and 100 μM). An EDTA tube (BD Vacutainer with spray-coated K2EDTA, 10 ml) and duplicate samples of all conditions of PICO70 syringe samplers were filled by drawing venous blood via a butterfly needle using a sealed VTC (vented tip cap) to fill the otherwise self-aspirating PICO70 samplers with 1.5 mL venous whole blood. Samplers were inverted 8 times immediately after drawing to insure proper anticoagulation of the samples. The blood samples were mixed gently by hand (samplers without gold ball) or on a SAM mixer (Radiometer Medical ApS) for 15 minutes after drawing the sample. Mixed samples were fixed immediately with 10% formalin solution (1:1 dilution of blood in formalin) for at least 10 minutes and further diluted 1:10 in platelet dilution solution to hemolyze red blood cells (RBCs) to assessed manual platelet count using a hemocytometer. […] Single platelet counts were adjusted for dilution with liquid heparin and or dissolved drug solution to calculate single platelet concentrations.

[3] = tested on: WBCs (white blood cells) and platelets; experiment: Wet mount images of stained and hemolyzed blood samples; settings: for Platelets in stained wet mount images (single, aggregated, satellinism) / WBC aggregates in stained wet mount images: PicoSAM samples, 1 μM tirofiban, 20 μM eptifibatide, 100 nM iloprost
Experimental: Venous blood samples were drawn and mixed as described before in Example 1 and used to prepare stained wet mounts images. Blood samples were mixed with a staining and hemolyzing agent (methylene blue and deoxycholic acid, respectively) and incubated at 47° C. in a water bath for 30 seconds. Stained and hemolyzed blood samples were then prepared in wet mount samples on a glass slide and covered with a glass coverslip. Images of stained samples were then acquired with a Leica 750 microscope using a 40× air objective in bright field mode. An image processing software (FIJI, ImageJ) was used to select regions of interest (ROIs) of representative stained WBCs from the images.

Molecule	Platelet aggregates in microscopic images (platelets [1])	Formation of platelet aggregates compared to LiHep and PicoSAM references (platelets [2])	Platelets in stained wet mount images (single, aggregated, satellinism) [3]	WBC aggregates in stained wet mount images [3]	Single platelet count compared to LiHep and PicoSAM controls (platelets [2])	Single platelet count compared to EDTA reference (platelets [2])	Number of platelet aggregates compared to EDTA (platelets [2])	WBC aggregation in the blood sample (leukocyte activation) ([3]; statement in the description)
heparin	allows or even potentiates platelet aggregation; also recorded: showed platelet aggregates	–	–	–	–	–	–	–
Clc1ccccc1CN1CCc2sccc2C1 [Ticlopidine LiHep, ticlopidine hydrochloride]	–	slightly reduced number of aggregates	–	–	–	–	–	–
O=C(O)CN(CCN(CC(=O)O)CC(=O)O)CC(=O)O [EDTA, Ethylenediaminetetraacetic acid]	prevents platelet activation and maintains single platelets; also recorded: cannot be seen	–	same results	same results	–	–	–	–
O=S(=O)([O-])[O-].[Mg+2] [MgSO4]	–	reduced the formation of platelet aggregates	–	–	–	–	–	–
OCCN(CCO)c1nc(N2CCCCC2)c2nc(N(CCO)CCO)nc(N3CCCCC3)c2n1 [Dipyridamole, dipyridamole]	–	–	–	–	slightly higher platelet number	–	–	–
CCCCS(=O)(=O)N[C@@H](Cc1ccc(OCCCCC2CCNCC2)cc1)C(=O)O [Tirofiban, tirofiban hydrochloride monohydrate]	–	reduced the formation of platelet aggregates	single platelets but also platelet satellinism	WBC aggregates were also observed	–	comparable to standard EDTA anticoagulated blood	no or few aggregates	–
CC#CCC(C)[C@H](O)/C=C/[C@@H]1[C@H]2C/C(=C/CCCC(=O)O)C[C@H]2C[C@H]1O (stereo partly drawn) [Iloprost, iloprost]	–	reduced the formation of platelet aggregates	single platelets, not platelet satellinism	not platelet satellinism or WBC aggregates	–	comparable to standard EDTA anticoagulated blood	no or few aggregates	very low WBC aggregation
eptifibatide acetate	cannot be observed; also recorded: cannot be seen	reduced the formation of platelet aggregates	single platelets but also platelet satellinism	WBC aggregates were also observed	–	comparable to standard EDTA anticoagulated blood	no or few aggregates	–
N=C(N)NCCC[C@H](N)C(=O)O [L-Arginine]	–	–	–	–	slightly higher platelet count	decreased number of platelets	higher number of platelet aggregates	–

From patent US20200393345A1, “HEPARIN-BASED BLOOD SAMPLER WITHOUT PLATELET ACTIVATION” (Radiometer Medical ApS, priority 2017, published 2020)
